Source: PubChem BioAssay AID608 (Sanford-Burnham Center for Chemical Genomics, 2007)
pKd: −log10 of the molar value. The source made the active and inactive calls. The rule behind the calls is not given here.

biological target: Peptidyl-prolyl cis-trans isomerase FKBP1A (Homo sapiens) (UniProt P62942); assay: small-molecule binding to FKBP12 – biophysical, NMR detection (AID 608); settings: purified FKBP12
Sequence (P62942 whole entry, looked up): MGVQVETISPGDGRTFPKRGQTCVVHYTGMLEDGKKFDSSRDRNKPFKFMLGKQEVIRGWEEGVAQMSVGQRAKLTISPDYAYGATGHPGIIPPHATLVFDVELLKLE

SMILES	Kd	pKd
COc1cc2c(cc1O)[C@@H](Cc1ccc(O)cc1)[N+](C)(C)CC2	> 4 mM (inactive)	–
O=C(CSc1ncnc2ccccc12)NCCCO	> 4 mM (inactive)	–
O=C(COc1ccccc1F)N1CCOCC1	inactive	–
Cc1nnc(NCc2ccc3c(c2)OCO3)[nH]c1=O	> 4 mM (inactive)	–
CC(C)=NNC(=O)c1ccccc1	> 4 mM (inactive)	–
CCOC(=O)c1c(-c2ccncc2)csc1N	> 4 mM (inactive)	–
O=C(c1cc2ccccc2o1)N1CCOCC1	inactive	–
COCC(=O)Nc1nc2ccc(C)cc2s1	> 4 mM (inactive)	–
COc1ccccc1NC(=O)c1snnc1C	> 4 mM (inactive)	–
CC(=O)NC(NC(C)=O)c1ccccc1	> 4 mM (inactive)	–
Cn1nc(C(=O)N2CCOCC2)c2ccccc2c1=O	> 4 mM (inactive)	–
O=C1NC(=S)NC(=O)C1=Cc1ccncc1	> 4 mM (inactive)	–
O=C(Nc1cccc(O)c1)c1ccccc1	> 4 mM (inactive)	–
Cn1cnc2nc3n(c2c1=O)CCC3	> 4 mM (inactive)	–
Cn1c(O)c(C=NCC2CCNCC2)c(=O)n(C)c1=O	> 4 mM (inactive)	–
N=Nc1c(O)[nH]c2ccccc12	> 4 mM (inactive)	–
O=C(O)Cn1cc(C(=O)c2cccs2)c2ccccc21	> 4 mM (inactive)	–
CC(=O)N1CCc2cc(NC(=O)c3ccc(C)cc3)ccc21	> 4 mM (inactive)	–
NS(=O)(=O)c1ccc(NC(=O)c2ccccc2F)cc1	> 4 mM (inactive)	–
CC1CCN(S(=O)(=O)N(C)C)CC1	> 4 mM (inactive)	–
NC1=NC(=O)CC(C(=O)Nc2ccccc2)S1 (stereo unspecified)	> 4 mM (inactive)	–

SMILES	Kd	pKd
O=C(c1ccccc1)c1ccc(N2CCNCC2)cc1	> 4 mM (inactive)	–
C=C1CCC2C(CC2(C)C)C(=O)CCC1O (stereo unspecified)	> 4 mM (inactive)	–
Cc1ccccc1C(=O)Nn1cnnc1	> 4 mM (inactive)	–
Cc1nnc(Nc2ccc(S(N)(=O)=O)cc2)[nH]c1=O	> 4 mM (inactive)	–
COc1ccc([C@H]2Oc3c(I)c(OC)cc(OC)c3C[C@@H]2O)cc1OC	> 4 mM (inactive)	–
CC(=O)NC1C(=O)Nc2c(C)cc(C)cc21 (stereo unspecified)	> 4 mM (inactive)	–
C=C[C@H]1CN2CC[C@H]1C[C@@H]2[C@H](O)c1ccnc2ccccc12	> 4 mM (inactive)	–
COc1ccccc1CNc1nc2nc(C)cc(=O)n2[nH]1	> 4 mM (inactive)	–
COc1ccc(CCC(=O)N2CCOCC2)cc1	–	3.69
OCc1ccc(-c2cccs2)s1	> 4 mM (inactive)	–
COC(=O)C1=C(C)N(c2cccc(C(C)=O)c2)C(=O)C1	> 4 mM (inactive)	–
COc1cccc(-c2csc(NC(C)=O)n2)c1	> 4 mM (inactive)	–
CN1CCN(C(=O)c2ccccc2N)CC1	> 4 mM (inactive)	–
O=C1c2ccc(F)cc2C(=O)N1CO	> 4 mM (inactive)	–
CCOc1cc(S(=O)(=O)N2CCOCC2)ccc1F	> 4 mM (inactive)	–
NCCCCNCCCN	> 4 mM (inactive)	–
Cn1cnc2c(=O)[nH]cc([N+](=O)[O-])c21	> 4 mM (inactive)	–
Cn1nc(C(=O)N2CCCC2)c2ccccc2c1=O	> 4 mM (inactive)	–
CC(=O)c1cc(-c2nc3ccccc3n2C)n(C)c1	> 4 mM (inactive)	–
COC(=O)c1c(OC)cc2c(c1C)Oc1c(Cl)c(OC(C)=O)c(Cl)c(C)c1C(=O)O2	> 4 mM (inactive)	–
O=c1c[n+]([O-])c2ccccc2n1OCc1ccccc1	> 4 mM (inactive)	–

SMILES	Kd	pKd
C/C(O)=c1/sc2cc(C)nc(=N)n2c1=O	> 4 mM (inactive)	–
CCOC(=O)c1sc(SC)c2c1CCCC2O (stereo unspecified)	> 4 mM (inactive)	–
CSc1nnc2ccc(-c3cccnc3)nn12	> 4 mM (inactive)	–
CC(C)CCCC1(C)C=Cc2c(O)c3c(c(CCC(C)C)c2O1)OC12C(CC4CC1C(C)(C)OC2(CCC(C)C(=O)O)C4O)C3=O (stereo unspecified)	> 4 mM (inactive)	–
COc1c2occc2c(OC)c2c(=O)cc(C)oc12	> 4 mM (inactive)	–
CN1CN(Cc2ccccc2)CN/C1=N/[N+](=O)[O-]	> 4 mM (inactive)	–
O=C(COc1ccc2c(c1)OCO2)N1CCOCC1	inactive	–
Nc1nc2c3ccccc3nc(Cc3ccccc3)n2n1	> 4 mM (inactive)	–
Oc1ccc(-c2n[nH]c(=S)n2Cc2ccco2)cc1	> 4 mM (inactive)	–
Brc1cccc(-c2nnco2)c1	> 4 mM (inactive)	–
NC(=O)C1CCN(CN2C(=O)c3ccccc3C2=O)CC1	> 4 mM (inactive)	–
Cc1noc(C)c1C(=O)N1CCN(c2ncccn2)CC1	> 4 mM (inactive)	–
Cc1cc(C)n2nc(SCC(=O)c3ccccc3)nc2n1	> 4 mM (inactive)	–
COc1cc2c(cc1-c1coc3c4c(c(OC)cc3c1=O)OC(C)(C)C=C4)OCO2	> 4 mM (inactive)	–
COc1cc2c(cc1OC)C1(O)C(=O)c3ccc(O)c(C(=O)O)c3OC1CO2 (stereo unspecified)	> 4 mM (inactive)	–
OCc1ccc2ncccc2c1	> 4 mM (inactive)	–
S=C(NCc1cccnc1)NC1CC1	> 4 mM (inactive)	–
c1ccc2nc3c(nc2c1)CCc1nonc1-3	> 4 mM (inactive)	–
N#Cc1sc2nc3c(c(-c4cccnc4)c2c1N)CCC3	> 4 mM (inactive)	–
